Where a name gives a salt, the structure may show the parent alone.

Consider `COc1ccccc1C1=C(C#N)C(c2cccc3nsnc23)c2c[nH]nc2N1` (centres unmarked) [Example 163, 4-(2,1,3-Benzothiadiazol-4-yl)-5-cyano-4,7-dihydro-6-(2-methoxyphenyl)-2H-pyrazolo[3,4-b]pyridine], for which the melting point was 231 °C.
On to `CC1=C(C#N)C(c2cccc3nonc23)c2c[nH]nc2N1` (centres unmarked) [Example 176, 4-(2,1,3-Benzoxadiazol-4-yl)-5-cyano-4,7-dihydro-6-methyl-2H-pyrazolo[3,4-b]pyridine], for which the melting point came out at 212 °C.
Regarding `CC(C)(C)OC(=O)N1CCCC(C2=C(C#N)C(c3cccc(C#N)c3Br)c3c[nH]nc3N2)C1` (centres unmarked) [Example 1039, 4-(2-Bromo-3-cyanophenyl)-6-(1-t-butoxycarbonylpiperidin-3-yl)-5-cyano-4,7-dihydro-2H-pyrazolo[3,4-b]pyridine], the melting point was 238 °C.
Regarding `COc1ccccc1C1=C(C#N)C(c2ccccc2OC)c2c[nH]nc2N1` (centres unmarked) [Example 151, 5-Cyano-4,7-dihydro-4,6-bis-(2-methoxyphenyl)-2H-pyrazolo[3,4-b]pyridine], the melting point turned out to be 220 °C.
To `CC1=C(C(=O)OC(C)(C)C)C(c2ccccc2Cl)c2c[nH]nc2N1` (centres unmarked) [Example 5, t-Butyl 4-(2-chlorophenyl)-4,7-dihydro-6-methyl-2H-pyrazolo[3,4-b]pyridine-5-carboxylate] belongs 207 °C; to `CCCC1=C(C(=O)OCC)C(c2cccc(Cl)c2Cl)c2c[nH]nc2N1` (centres unmarked) [Example 44, Ethyl 4-(2,3-dichlorophenyl)-4,7-dihydro-6-propyl-2H-pyrazolo[3,4-b]pyridine-5-carboxylate], 220 °C.
For `CCCC1=C(C#N)C(c2ccccc2Cl)c2c(n[nH]c2-c2ccc3ccccc3c2)N1` (centres unmarked) [Example 301, 4-(2-Chlorophenyl)-5-cyano-4,7-dihydro-3-(naphthalen-2-yl)-6-propyl-2H-pyrazolo[3,4-b]pyridine] the value was more than 270 °C.
For `CN1CCOC(C2=C(C#N)C(c3cccc(C#N)c3Br)c3c[nH]nc3N2)C1` (centres unmarked) (as salt: trifluoroacetate) [Example 1046, 4-(2-Bromo-3-cyanophenyl)-5-cyano-4,7-dihydro-6-(4-methylmorpholin-2-yl)-2H-pyrazolo[3,4-b]pyridine] the value was 180 °C; for `CCOC(=O)C1=C(C)Nc2n[nH]cc2C1c1ccccc1C(F)(F)F` (centres unmarked) [Example 3, Ethyl 4,7-dihydro-6-methyl-4-(2-trifluoromethylphenyl)-2H-pyrazolo[3,4-b]pyridine-5-carboxylate], 259 to 262 °C; for `CCCC1=C(C#N)C(c2ccccc2Cl)c2cn(C(=O)OC(C)(C)C)nc2N1` (centres unmarked) [Example 282, 2-tert-Butoxycarbonyl-4-(2-chlorophenyl)-5-cyano-4,7-dihydro-6-propyl-2H-pyrazolo[3,4-b]pyridine], 175 °C (dec.).
On to `CCCC1=C(C#N)C(c2ccccc2Cl)c2c[nH]nc2N1C` (centres unmarked) [Example 346, 4-(2-Chlorophenyl)-5-cyano-7-methyl-6-propyl-4,7-dihydro-2H-pyrazolo[3,4-b]pyridine], for which the melting point lay within 170 to 171 °C.
For `CCCC1=C(C(=O)OCC)C(c2ccccc2F)c2c[nH]nc2N1` (centres unmarked) [Example 26, Ethyl 4-(2-fluorophenyl)-4,7-dihydro-6-propyl-2H-pyrazolo[3,4-b]pyridine-5-carboxylate] the value was 192 to 194 °C.
To `CCCC1=C(C(=O)OCC)C(c2ccccc2OC2CCCC2)c2c[nH]nc2N1` (centres unmarked) [Example 37, Ethyl 4-(2-cyclopentyloxyphenyl)-4,7-dihydro-6-propyl-2H-pyrazolo[3,4-b]pyridine-5-carboxylate] belongs 195 °C; to `CCCC1=C(C(=O)OCC)C(c2ccccc2Cl)c2cnn(C(=O)OCC)c2N1` (centres unmarked) [Example 219, Ethyl 4-(2-chlorophenyl)-1-ethoxycarbonyl-4,7-dihydro-6-propyl-1H-pyrazolo[3,4-b]pyridine-5-carboxylate], 88 to 89 °C.
